Data reported in ChEMBL document CHEMBL1146479, “Antineoplastic agents. 522. Hernandia peltata (Malaysia) and Hernandia nymphaeifolia (Republic of Maldives)” (2004).
Converted amounts (≈) assume the structure as drawn.

Columns and labels:
Type in all cases: functional
[1] = test system: Neisseria gonorrhoeae; assay: Antimicrobial activity against Neisseria gonorrhoeae ATCC 49226 by antimicrobial susceptibility testing
[2] = test system: DU-145; assay: Anticancer activity against human DU145 cells after 48 hrs by SRB assay; conditions: DU-145, 48 h, read-out: ED50 (the source's name)
[3] = test system: P388; assay: Anticancer activity against mouse P388 cells after 48 hrs; conditions: P388, 48 h, read-out: ED50 (the source's name)
[4] = test system: BXPC-3; assay: Anticancer activity against human BxPC3 cells after 48 hrs by SRB assay; conditions: BXPC-3, 48 h, read-out: ED50 (the source's name)
[5] = test system: MCF7; assay: Anticancer activity against human MCF7 cells after 48 hrs by SRB assay; conditions: MCF7, 48 h, read-out: ED50 (the source's name)
[6] = test system: SF-268; assay: Anticancer activity against human SF268 cells after 48 hrs by SRB assay; conditions: SF-268, 48 h, read-out: ED50 (the source's name)
[7] = test system: NCI-H460; assay: Anticancer activity against human NCI-H460 cells after 48 hrs by SRB assay; conditions: NCI-H460, 48 h, read-out: ED50 (the source's name)
[8] = test system: KM-20L2; assay: Anticancer activity against human KM20L2 cells after 48 hrs by SRB assay; conditions: KM-20L2, 48 h, read-out: ED50 (the source's name)

SMILES	MIC [1]	EC50 [2]	EC50 [3]	EC50 [4]	EC50 [5]	EC50 [6]	EC50 [7]	EC50 [8]
COc1ccc(C[C@H]2COC(=O)[C@@H]2Cc2ccc(OC)c(OC)c2)cc1OC	32 µg/mL (≈ 82.8 µM)	–	–	–	–	–	–	–
COc1cc([C@@H]2OC[C@H]3[C@@H]2CO[C@@H]3c2ccc3c(c2)OCO3)cc(OC)c1OC	–	> 10 µg/mL	1.5 µg/mL (≈ 3.75 µM)	> 10 µg/mL	> 10 µg/mL	> 10 µg/mL	> 10 µg/mL	> 10 µg/mL
COc1ccc([C@H]2OC[C@H]3[C@@H]2CO[C@H]3c2ccc(OC)c(OC)c2)cc1OC	–	3.1 µg/mL (≈ 8.02 µM)	1.7 µg/mL (≈ 4.4 µM)	3.4 µg/mL (≈ 8.8 µM)	3.5 µg/mL (≈ 9.06 µM)	3.8 µg/mL (≈ 9.83 µM)	3.8 µg/mL (≈ 9.83 µM)	3 µg/mL (≈ 7.76 µM)
COc1cc2c(c(OC)c1OC)[C@]13C=C(O)C(=O)C=C1O[C@H]2[C@H]1C(=O)OC[C@@H]1C3	32 µg/mL (≈ 79.9 µM)	–	–	–	–	–	–	–
COc1cc(CC2C(Cc3ccc4c(c3)OCO4)COC2O)cc(OC)c1OC (stereo not given) [CLUSIN]	32 µg/mL (≈ 79.5 µM)	–	–	–	–	–	–	–
COc1cc([C@@H]2c3cc4c(cc3C[C@H]3COC(=O)[C@H]32)OCO4)cc(OC)c1OC [DEOXYPICROPODOPHYLLIN]	32 µg/mL (≈ 80.3 µM)	0.051 µg/mL (≈ 0.128 µM)	0.03 µg/mL (≈ 0.0753 µM)	0.061 µg/mL (≈ 0.153 µM)	0.026 µg/mL (≈ 0.0653 µM)	0.041 µg/mL (≈ 0.103 µM)	0.067 µg/mL (≈ 0.168 µM)	0.054 µg/mL (≈ 0.136 µM)
COc1cc([C@@H]2c3cc4c(cc3C[C@H]3COC(=O)[C@@H]32)OCO4)cc(OC)c1OC [DESOXYPODOPHYLLOTOXIN]	32 µg/mL (≈ 80.3 µM)	0.0028 µg/mL (≈ 0.00703 µM)	0.0023 µg/mL (≈ 0.00577 µM)	0.0029 µg/mL (≈ 0.00728 µM)	0.0021 µg/mL (≈ 0.00527 µM)	0.0033 µg/mL (≈ 0.00828 µM)	0.0027 µg/mL (≈ 0.00678 µM)	0.0028 µg/mL (≈ 0.00703 µM)
COc1cc(C[C@H]2COC(=O)[C@@H]2Cc2cc(OC)c(OC)c(OC)c2)ccc1O [HERNANOL]	32 µg/mL (≈ 79.5 µM)	–	–	–	–	–	–	–
COc1ccc(CC2COC(O)C2Cc2ccc(OC)c(OC)c2)cc1OC (stereo not given) [KUSUNOKINOL]	32 µg/mL (≈ 82.4 µM)	–	–	–	–	–	–	–
COc1cc([C@@H](O)[C@H]2C(=O)OC[C@@H]2Cc2ccc3c(c2)OCO3)cc(OC)c1OC [PODORHIZOL]	32 µg/mL (≈ 76.8 µM)	> 10 µg/mL	> 1 µg/mL	3.8 µg/mL (≈ 9.13 µM)	6.6 µg/mL (≈ 15.8 µM)	> 10 µg/mL	> 10 µg/mL	> 10 µg/mL
COc1cc2c(c(OC)c1OC)-c1cc3c(cc1C[C@H]1COC(=O)[C@@H]1C2)OCO3 [STEGANE]	–	5.3 µg/mL (≈ 13.3 µM)	6.1 µg/mL (≈ 15.3 µM)	4.7 µg/mL (≈ 11.8 µM)	4.3 µg/mL (≈ 10.8 µM)	4.9 µg/mL (≈ 12.3 µM)	5.8 µg/mL (≈ 14.6 µM)	4.8 µg/mL (≈ 12 µM)
